In brackets after ≈: the same amount, converted by molar mass.
Experiments:
[1] = Acute toxicity in mice; assay type: in vivo; conditions: 100 mg/kg injected into lateral vein, ICR-strain male mouse, 5 mice, observed for 7 days
Experimental: The test compound (16 mg) was dissolved in 1N NaOH (0.1 ml) and steril distilled water (3.9 ml).

[2] = tested on: Mycoplasma pulmonis PG-22; assay: Minimal Inhibitory Concentration (MIC), antimycoplasmal activity, agar dilution method; assay type: cell-based; conditions: PG22, 37°C for 3 to 4 days, 5 per cent carbon dioxide, lowest concentration completely inhibiting colony growth
Experimental: MICs of test compound were obtained by the agar dilution method.
Agar plates contained two-fold decremental dilutions of the test compound, ranging from 0.05 to 100 pg/ml. The inoculum (0.01 ml, containing approximately 10^5 CFU/ml of liquid medium which had been cultured at 37°C for 3 days) was plated on moisture-free media surfaces. Plates were placed in a humidified atmosphere of 5 per cent carbon dioxide and 95 per cent air, and incubated at 37°C for 3 to 4 days. The colonies grown on the plate were observed under a low microscopic magnification (x60).

[3] = tested on: Vibrio anguillarum NP-1; assay: Minimal Inhibitory Concentration (MIC), antibacterial activity against fish-disease strain; assay type: cell-based; conditions: NP1, 2.5% sodium chloride added Heart Infusion Agar, 20 hours incubation at 25°C
Experimental: MICs againstvibrio anguillarum originated in fish diseases were obtained by the following method. An overnight culture broth of each strain was diluted 10-fold (approximately 10^6 cells/ml) and was stamped on 2.5% sodium chloride added Heart Infusion Agar containing graded concentrations of the test compounds, and MICs were expressed in terms of pg/ml after 20 hours incubation at 25°C.

Question: For `O=C(O)c1cn(C2CC2)c2c(F)c(N3CCNCC3)c(F)c(F)c2c1=O` [compound (I-d), 1-Cyclopropyl-5,6,8-trifluoro-7-(1-piperazinyl)-4-quinolone-3-carboxylic acid], which “Survivals / test mice” value [1] is on record?
Answer: 5 / 5

Question: And the MIC [2]?
Answer: 0.1 µg/mL (≈ 0.272 µM)

Question: And the MIC [3]?
Answer: 0.1 µg/mL (≈ 0.272 µM)

— patent EP0247464A1, “New quinolone compounds and a process for the preparation thereof” (FUJISAWA PHARMACEUTICAL CO., LTD., priority 1986, dated 1987)
